From article PMC2925893, “Structure Activity Relationship of Dendrimer Microbicides with Dual Action Antiviral Activity” (PLoS ONE, 2010)
Read-outs that look alike come from different tables or passages of the source.

Experiments:
HIV-1 strains = assay: microbe, parasite or virus in culture; type: cell-based
Procedure: (§1) Fresh human PBMCs were isolated from screened donors, seronegative for HIV and hepatitis B virus. Cells were pelleted/washed 2-3 times by low speed centrifugation and resuspended in Dulbecco’s phosphate buffered saline (PBS) to remove contaminating platelets. The leukophoresed blood was then diluted 1:1 with PBS and layered over 14 ml of Ficoll-Hypaque density gradient (Lymphocyte Separation Medium, Cell Grow #85-072-CL, density 1.078 +/- 0.002 gm/ml) in a 50 ml centrifuge tube and then centrifuged for 30 min at 600g. Banded PBMCs were gently aspirated from the resulting interface and subsequently washed twice with PBS by low speed centrifugation. After the final wash, cells were counted by trypan blue exclusion and resuspended at 1 x 10^7 cells/ml in RPMI 1640 supplemented with 15% Fetal Bovine Serum (FBS), 2 mM L-glutamine, 4 µg/ml PHA-P. The cells were allowed to incubate for 48-72 h at 37°C. After incubation, PBMCs were centrifuged and resuspended in RPMI 1640 with 15% FBS, 2 mM L-glutamine, 100 U/ml penicillin, 100 µg/ml streptomycin, 10 µg/ml gentamycin, and 20 U/ml recombinant human IL-2. PBMCs were maintained in this medium at a concentration of 1-2 x 10^6 cells/ml with biweekly medium changes until used in the assay protocol. Monocytes were depleted from the culture as the result of adherence to the tissue culture flask.
For the standard PBMC assay, PHA-P stimulated cells from at least two normal donors were pooled, diluted in fresh medium to a final concentration of 1 x 10^6 cells/ml, and plated in the wells of a 96-well round bottom microplate at 50 µl/well (5 x 10^4 cells/well). […] Fifty microlitres of a predetermined dilution of virus stock was placed in each test well (final MOI ≅ 0.1). Wells with cells and virus alone were used for virus control. […] The PBMC cultures were maintained for seven days following infection, at which time cell-free supernate samples were collected and assayed for reverse transcriptase activity as described below.
A microtiter plate-based reverse transcriptase (RT) reaction was utilized. Tritiated thymidine triphosphate (^3H-TTP, 80 Ci/mmol, NEN) was received in 1:1 dH2O:ethanol at 1 mCi/ml. PolyrA:oligodT template-primer (Pharmacia) was prepared as a stock solution by combining 150 µl polyrA (20 mg/ml) with 0.5 ml oligodT (20 units/ml) and 5.35 ml sterile dH2O followed by aliquoting (1.0 ml) and storage at -20°C. The RT reaction buffer was prepared fresh on a daily basis and consisted of 125 µl 1.0 M EGTA, 125 µl dH2O, 125 µl 20% Triton X100, 50 µl 1.0 M Tris (pH 7.4), 50 µl 1.0 M DTT, and 40 µl 1.0 M MgCl2. The final reaction mixture was prepared by combining 1 part ^3H-TTP, 4 parts dH2O, 2.5 parts polyrA:oligodT stock and 2.5 parts reaction buffer. Ten microliters of this reaction mixture was placed in a round bottom microtiter plate and 15 µl of virus containing supernatant was added and mixed. The plate was incubated at 37°C for 60 min. Following incubation, the reaction volume was spotted onto DE81 filter-mats (Wallac), washed 5 times for 5 min each in a 5% sodium phosphate buffer or 2X saline sodium citrate (SSC, Life Technologies), 2 times for 1 min each in distilled water, 2 times for 1 min each in 70% ethanol, and then dried. Incorporated radioactivity (counts per minute, CPM) was quantified using standard liquid scintillation techniques.
(§2) The plate was read spectrophotometrically at 490/650 nm with a Molecular Devices Vmax plate reader

HIV-2 strains = assay: Anti-HIV activity in PHA-stimulated human PBMCs, supernatant RT activity readout; type: cell-based; settings: PBMC
Procedure: as §1
For the standard PBMC assay, PHA-P stimulated cells from at least two normal donors were pooled, diluted in fresh medium to a final concentration of 1 x 10^6 cells/ml, and plated in the wells of a 96-well round bottom microplate at 50 µl/well (5 x 10^4 cells/well). […] Fifty microlitres of a predetermined dilution of virus stock was placed in each test well (final MOI ≅ 0.1). Wells with cells and virus alone were used for virus control. […]
A microtiter plate-based reverse transcriptase (RT) reaction was utilized. […] Incorporated radioactivity (counts per minute, CPM) was quantified using standard liquid scintillation techniques.
as §2

HIV-1 NL4.3 = assay: Time of addition assay in TZM-bl cells; type: cell-based
Procedure: TZM-bl cells were seeded in 96-well tissue culture plates at 2.5×10^4 cells per well in 100 µl of DMEM-10. Cells were grown for 12 h at 37°C in 5% CO2 after which triplicate wells were infected with NL4.3 at a multiplicity of infection of one by spinoculation. Briefly, DMEM-10 was removed from cells and replaced with 100 µl of virus in DMEM-10 and plates were centrifuged at 1200 g for 60 min at 17°C. Viral inoculum was removed and cells washed twice with 250 µl of cold DMEM-10 after which 100 µl of DMEM-10 or DMEM-10 containing drug was added at t = 0 to appropriate cells. DMEM-10 containing drug was subsequently added at t = 2, 3, 4, 5, 6, 8 and 24 h post infection to appropriate wells. At 31 h postinfection, HIV-1 replication was determined by measuring luciferase activity as above.

[1] = tested on: X4 (HXB2) HIV-1 envelope mediated cell-to-cell fusion; assay: Cell-to-cell fusion assay, X4 envelope; type: cell-based
Procedure: (§3) The gp120 gene from the R5 HIV-1 strain ADA and X4 HIV-1 strain HXB2 was cloned into a HIV-1 Env expression vector. Briefly, the 2.1 kb HIV-1 env within Kpn I and Bam HI restriction sites was cloned from viral genomic DNA into pSVIII-HXB2 Env expression vector [67]. The pcDNA3-CD4, pcDNA3-CCR5 and pcDNA3-CXCR4 plasmids express human CD4, R5 and X4 respectively. pSVTat expresses the HIV-1 Tat protein. Cell-cell fusion assays were conducted as described previously. Briefly, Cf2-Luc target cells seeded in 25 cm^2 tissue culture flasks were transfected with 1 µg of CD4 plasmid and 3 µg of R5 or X4 plasmid. 293T effector cells seeded in 6-well tissue culture plates were co-transfected with 3.4 µg of ADA or HXB2 gp120-expressing plasmid and 0.6 µg pSVTat. Target and effector cells were transfected using Lipofectamine 2000 (Invitrogen) according to the manufacturers' protocol. Effector cells expressing ADA or HXB2 Env were pre-incubated in DMEM-10 containing 10-fold increasing concentrations of efavarenz, T-20, dendrimer or no drug (untreated controls) for 30 min at 37°C. Approximately 2×10^4 effector cells were added to 2×10^4 Cf2-Luc target cells and were incubated at 37°C in replicate wells containing 200 µl of culture. Cells from replicate wells were harvested at 7 h post-mixing and assayed for luciferase activity (Promega) according to the manufacturers' protocol. […]

[2] = tested on: R5 (ADA) HIV-1 envelope mediated cell-to-cell fusion; assay: Cell-to-cell fusion assay, R5 envelope; type: cell-based
Procedure: as §3

HSV-2 strain G = tested on: HSV-2 strain G; set-up: method as in PMID 16740164; settings: mouse, single dose; cited from earlier work
[3] = PBMC, multi-drug resistant HIV-1 MDR769

Compound: Cc1cn([C@H]2C[C@H](N=[N+]=[N-])[C@@H](CO)O2)c(=O)[nH]c1=O [AZT, zidovudine]
- EC50 (HIV-1 strains; Human immunodeficiency virus 1, CCR5, PBMC, Clade A (92RW016), CCR5): 2 nM
- EC50 (HIV-1 strains; Human immunodeficiency virus 1, CCR5, PBMC, Clade B (302056), CCR5): 10 nM
- EC50 (HIV-1 strains; Human immunodeficiency virus 1, CCR5, PBMC, Clade C (92BR025), CCR5): 4 nM
- EC50 (HIV-1 strains; Human immunodeficiency virus 1, CCR5, PBMC, Clade G (JV1083), CCR5): 4 nM
- EC50 (HIV-1 strains; Human immunodeficiency virus 1, CCR5, PBMC, Clade O (BCF01), CCR5): 4 nM
- EC50 (HIV-1 strains; Human immunodeficiency virus 1, CCR5, PBMC, SLKA (NSI), CCR5): 4 nM
- EC50 (HIV-1 strains; Human immunodeficiency virus 1, CCR5, PBMC, TEKI (NSI), CCR5): 2 nM
- EC50 (HIV-1 strains; Human immunodeficiency virus 1, PBMC, PBMC, Clade D (92UG046), CXCR4): 3 nM
- EC50 (HIV-1 strains; Human immunodeficiency virus 1, PBMC, PBMC, Clade EA (CMU02), CXCR4): 8 nM
- EC50 (HIV-1 strains; Human immunodeficiency virus 1, PBMC, PBMC, Clade F (93BR020), dual tropic): 2 nM
- EC50 (HIV-1 strains; Human immunodeficiency virus 1, PBMC, PBMC, ROJO (SI), CXCR4): 2 nM
- EC50 (HIV-1 strains; Human immunodeficiency virus 1, PBMC, PBMC, WEJO (SI), CXCR4): 0.3 nM
- EC50 (HIV-1 strains; Human immunodeficiency virus 1, PBMC, read-out: EC50 of positive control, assay validation, PBMC assays): ≤ 10 nM
- SI (HIV-1 strains; PBMC, Clade A (92RW016)): >500
- SI (HIV-1 strains; PBMC, Clade B (302056)): >100
- SI (HIV-1 strains; PBMC, Clade C (92BR025)): >250
- SI (HIV-1 strains; PBMC, Clade D (92UG046)): >333
- SI (HIV-1 strains; PBMC, Clade EA (CMU02)): >125
- SI (HIV-1 strains; PBMC, Clade F (93BR020)): >500
- SI (HIV-1 strains; PBMC, Clade G (JV1083)): >250
- SI (HIV-1 strains; PBMC, Clade O (BCF01)): >250
- SI (HIV-1 strains; PBMC, ROJO (SI)): >500
- SI (HIV-1 strains; PBMC, SLKA (NSI)): >250
- SI (HIV-1 strains; PBMC, TEKI (NSI)): >500
- SI (HIV-1 strains; PBMC, WEJO (SI)): >3333
- EC50 (HIV-2 strains; Human immunodeficiency virus 2, HIV-2 CBL-20, AZT column): 1 nM
- SI (HIV-2 strains; HIV-2 CBL-20): >1000
- SI (HIV-2 strains; HIV-2 CDC 310319): >1000

Compound: c1cc(CN2CCCNCCNCCCNCC2)ccc1CN1CCCNCCNCCCNCC1 [AMD3100]
- time of addition result (HIV-1 NL4.3; dendrimers at 20 and 100 µg/ml): failed to block HIV-1 replication if the drug was added after virus addition
- inhibition of cell-to-cell fusion [1]: failed to inhibit fusion

Compound: maraviroc
- inhibition of cell-to-cell fusion [2]: failed to inhibit fusion

Compound: CCCCCCCCCc1ccc(OCCOCCOCCOCCOCCOCCOCCOCCOCCO)cc1 [nonoxynol 9]
- susceptibility to HSV-2 infection after exposure (HSV-2 strain G): susceptibility is greatly increased

Compound: Dextran Sulfate
- EC50 (HIV-1 strains; [3]): 1.25 µg/mL
- SI (HIV-1 strains; [3]): >80

Compound: O=C1Nc2ccc(Cl)cc2[C@@](C#CC2CC2)(C(F)(F)F)O1 [efavirenz]
- inhibition of cell-to-cell fusion [2]: did not inhibit cell-to-cell fusion
- inhibition of cell-to-cell fusion [1]: did not inhibit cell-to-cell fusion

Compound: Cc1ccnc2c1NC(=O)c1cccnc1N2C1CC1 [nevirapine]
- time post infection that addition could be delayed before loss of HIV-1 inhibitory activity (HIV-1 NL4.3): up to 6 h
